The source of these data is patent publication US20260258086A1 (priority 2021, published 2026).

One data set addresses calf thymus RNAP II (Bos taurus, UniProt G3MZY8). The following applies: cited from earlier work.
A further data set relates to white mice. The following applies: mouse, in vivo; cited from earlier work.
Another data set has as its target Pol II (Homo sapiens, UniProt P24928). In words: biochemical. It is filed as biochemical.
In another data set the test system is SK-BR-3 cells. It is filed as cell-based. The following applies: read-out: IC50, cell viability on SK-BR-3 cells.

Read-outs that look alike come from different tables or passages of the source. Numbered stars: 1 amine (or outer) side, 2 acyl side, 3 side chain; on linkers, the order of the positions; unused ones are H or OH. Bridge positions count the residues as written; N and C are the ends. Square brackets hold non-standard residues; d marks the D form. Peptide text beside a SMILES is read from it. X4 = O=C([C@@H](Cc1c([*:3])[nH]c2ccc(O)cc12)N[*:1])[*:2]; X2 = O=C([C@@H](Cc1c([*:3])[nH]c2ccccc12)N[*:1])[*:2]; Ile(4R-OH,5-OH) = C[C@H]([C@H](N)C(=O)O)[C@@H](O)CO; X5 = C[C@@H](S[*:3])[C@H](N[*:1])C(=O)[*:2]; X1 = C[C@H](S[*:3])[C@H](N[*:1])C(=O)[*:2]; X3 = CS[C@H](C)[C@H](N[*:1])C(=O)[*:2]; Gly(cPent) = N[C@H](C(=O)O)C1CCCC1; Nva(3-Et) = CCC(CC)[C@H](N)C(=O)O; Hyp = O=C(O)[C@@H]1C[C@@H](O)CN1; Pen = CC(C)(S)[C@H](N)C(=O)O

A word on the IC50: it is the concentration at which inhibition is half-maximal. Turning to `CC[C@H](C)[C@@H]1NC(=O)CNC(=O)[C@H]2Cc3c([nH]c4ccccc34)S[C@@H](C)[C@H](NC(=O)CNC1=O)C(=O)N[C@@H](CC(N)=O)C(=O)N1C[C@H](O)C[C@H]1C(=O)N[C@@H]([C@@H](C)[C@@H](O)CO)C(=O)N2` [Compound I(i), (2R,3S)-β-Methyl-Cys^8-Dideoxyamanitin] (cyclo(GIG[X1]N[Hyp][Ile(4R-OH,5-OH)][X2]); thioether 4-8), the IC50 in the data set on CHO cells worked out at 610 ± 170 nM; with HEK293 cells, 240 ± 50 nM.

Take `CO[C@H](C)[C@@H]1NC(=O)CNC(=O)[C@H]2Cc3c([nH]c4ccccc34)SC[C@H](NC(=O)CNC1=O)C(=O)N[C@@H](CC(N)=O)C(=O)N1C[C@H](O)C[C@H]1C(=O)N[C@@H]([C@@H](C)[C@@H](O)CO)C(=O)N2` [Compound I(vi), Oxo-Ile^6-Dideoxyamanitin] (cyclo(CN[Hyp][Ile(4R-OH,5-OH)][X2]GT(Me)G); thioether 1-5): in the data set with CHO cells, the IC50 was above 15000 nM and the “cytotoxicity compared with α-amanitin, in words” value is on record as “no observable cytotoxicity”.

By Ki is commonly meant a dissociation constant, usually derived from enzyme kinetics or from competition with a known ligand. Broadly, the LD50 is the dose expected to kill half of the subjects tested. In the case of `CC[C@H](C)[C@@H]1NC(=O)CNC(=O)[C@@H]2Cc3c([nH]c4ccccc34)[S+]([O-])C[C@H](NC(=O)CNC1=O)C(=O)N[C@@H](CC(N)=O)C(=O)N1C[C@H](O)C[C@H]1C(=O)N[C@@H]([C@@H](C)[C@@H](O)CO)C(=O)N2` (stereo partly shown) [amaninamide], the Ki on calf thymus RNAP II was 5 nM. In addition, the LD50 in the data set on white mice is 20 mg/kg.

Consider `CS[C@H](C)[C@@H]1NC(=O)CNC(=O)[C@H]2Cc3c([nH]c4ccccc34)SC[C@H](NC(=O)CNC1=O)C(=O)N[C@@H](CC(N)=O)C(=O)N1C[C@H](O)C[C@H]1C(=O)N[C@@H]([C@@H](C)[C@@H](O)CO)C(=O)N2` [Compound I(v), Thia-Ile^6-Dideoxyamanitin] (cyclo(CN[Hyp][Ile(4R-OH,5-OH)][X2]G[X3]G); thioether 1-5), for which the IC50 in the data set with HeLa cells was 16000 ± 2300 nM; in the data set on CHO cells it was 4400 ± 730 nM; with HepG2 cells, above 20000 nM; with HEK293 cells, 830 ± 150 nM. Besides, the “Pol II / transcription inhibition, in words” value on Pol II was “high Pol II inhibition”.

As to `CCC(CC)[C@@H]1NC(=O)CNC(=O)[C@H]2Cc3c([nH]c4ccc(O)cc34)S[C@@H](C)[C@H](NC(=O)CNC1=O)C(=O)N[C@@H](CC(N)=O)C(=O)N1C[C@H](O)C[C@H]1C(=O)N[C@@H]([C@@H](C)[C@@H](O)CO)C(=O)N2` [Compound I(xiii), 5-OH Trp^4, Diethylala^6, (2R,3S)-β-Methyl-Cys^8-Deoxyamanitin] (cyclo(G[Nva(3-Et)]G[X1]N[Hyp][Ile(4R-OH,5-OH)][X4]); thioether 4-8), the IC50 with CHO cells amounted to 1170 ± 370 nM; in the data set with HEK293 cells, 240 ± 50 nM.

Take `C[C@H]([C@@H]1NC(=O)[C@@H]2C[C@@H](O)CN2C(=O)[C@H](CC(N)=O)NC(=O)[C@@H]2CSc3[nH]c4ccccc4c3C[C@@H](NC1=O)C(=O)NCC(=O)N[C@@H](C1CCCC1)C(=O)NCC(=O)N2)[C@@H](O)CO` [Compound I(viii), Cyclopentylgly^6-Dideoxyamanitin] (cyclo(CN[Hyp][Ile(4R-OH,5-OH)][X2]G[Gly(cPent)]G); thioether 1-5): in the data set on CHO cells, it took 1700 ± 270 nM to reach half-maximal inhibition (IC50) and the “cytotoxicity compared with α-amanitin, in words” value is listed as “considerably diminished toxicity”.

As to `CC[C@H](C)[C@@H]1NC(=O)CNC(=O)[C@H]2Cc3c([nH]c4ccccc34)SC[C@H](NC(=O)CNC1=O)C(=O)N[C@@H](CC(N)=O)C(=O)N1C[C@H](O)C[C@H]1C(=O)N[C@@H]([C@@H](C)[C@@H](O)CO)C(=O)N2` [Compound I(iv), aza-Gly^7-Dideoxyamanitin] (cyclo(CN[Hyp][Ile(4R-OH,5-OH)][X2]GIG); thioether 1-5), the IC50 with HeLa cells is 3300 ± 390 nM; in the data set on CHO cells it was 170 ± 30 nM; with HepG2 cells, 5600 ± 780 nM; in the data set with HEK293 cells, 260 ± 70 nM. Moreover, the “cytotoxicity, in words” value in the data set on HeLa cells and in the data set with HEK293 cells was “increased cytotoxicity” each time.

As to amanullinic acid, in the data set on white mice, the LD50 was above 20 mg/kg.

With `CC[C@H](C)[C@@H]1NC(=O)CNC(=O)[C@H]2Cc3c([nH]c4ccccc34)SC(C)(C)[C@H](NC(=O)CNC1=O)C(=O)N[C@@H](CC(N)=O)C(=O)N1C[C@H](O)C[C@H]1C(=O)N[C@@H]([C@@H](C)[C@@H](O)CO)C(=O)N2` [Compound I(iii), Pen^8-Dideoxyamanitin] (cyclo(GIG[Pen]N[Hyp][Ile(4R-OH,5-OH)][X2]); thioether 4-8), in the data set on CHO cells, 2700 ± 590 nM corresponded to half-maximal inhibition (IC50) and the “cytotoxicity compared with α-amanitin, in words” value is “intermediately toxic”.

Take γ-amanitin: the Ki at calf thymus RNAP II (read-out: Ki) was 5 nM. The LD50 in the data set with white mice is given as 0.2 mg/kg.

`CC[C@H](C)[C@@H]1NC(=O)CNC(=O)[C@H]2Cc3c([nH]c4ccccc34)S[C@H](C)[C@H](NC(=O)CNC1=O)C(=O)N[C@@H](CC(N)=O)C(=O)N1C[C@H](O)C[C@H]1C(=O)N[C@@H]([C@@H](C)[C@@H](O)CO)C(=O)N2` [Compound I(ii), (2R,3R)-β-Methyl-Cys^8-Dideoxyamanitin] (cyclo(GIG[X5]N[Hyp][Ile(4R-OH,5-OH)][X2]); thioether 4-8) showed a half-inhibitory concentration (IC50) in the data set on CHO cells above 15000 nM. At Pol II, the Ki was above 1000 nM.

For the molecule `CC[C@H](C)[C@@H]1NC(=O)CNC(=O)[C@@H]2Cc3c([nH]c4cc(O)ccc34)[S+]([O-])C[C@H](NC(=O)CNC1=O)C(=O)N[C@@H](CC(N)=O)C(=O)N1C[C@H](O)C[C@H]1C(=O)N[C@@H]([C@@H](C)CC)C(=O)N2` (stereo partly shown) [amanullin], on calf thymus RNAP II, the Ki is 10 nM. For the same molecule, the LD50 in the data set with white mice is reported as above 20 mg/kg.

On to `CC[C@H](C)[C@@H]1NC(=O)CNC(=O)[C@H]2Cc3c([nH]c4ccccc34)SC[C@H](NC(=O)CNC1=O)C(=O)N[C@@H](CC(N)=O)C(=O)N1C[C@H](O)C[C@H]1C(=O)N[C@@H]([C@@H](C)[C@@H](O)CO)C(=O)N2` [Compound I(ix), aza-Gly^5-Dideoxyamanitin] (cyclo(CN[Hyp][Ile(4R-OH,5-OH)][X2]GIG); thioether 1-5), for which, in the data set on CHO cells, the IC50 came to 1900 ± 520 nM and the “cytotoxicity compared with α-amanitin, in words” value is reported as “only a two-fold reduction in cytotoxicity”. Further, in the data set on HEK293 cells, the IC50 was found to be 210 ± 50 nM.

In the case of `CCC(CC)[C@@H]1NC(=O)CNC(=O)[C@H]2Cc3c([nH]c4ccccc34)SC[C@H](NC(=O)CNC1=O)C(=O)N[C@@H](CC(N)=O)C(=O)N1C[C@H](O)C[C@H]1C(=O)N[C@@H]([C@@H](C)[C@@H](O)CO)C(=O)N2` [Compound I(vii), Diethylala^6-Dideoxyamanitin] (cyclo(CN[Hyp][Ile(4R-OH,5-OH)][X2]G[Nva(3-Et)]G); thioether 1-5), the IC50 amounted to 380 ± 110 nM in the data set on CHO cells and 170 ± 30 nM with HEK293 cells.

For `CCC(CC)[C@@H]1NC(=O)CNC(=O)[C@H]2Cc3c([nH]c4ccc(O)cc34)SC[C@H](NC(=O)CNC1=O)C(=O)N[C@@H](CC(N)=O)C(=O)N1C[C@H](O)C[C@H]1C(=O)N[C@@H]([C@@H](C)[C@@H](O)CO)C(=O)N2` [Compound I(xi), 5-OH Trp^4, Diethylala^6-Deoxyamanitin] (cyclo(CN[Hyp][Ile(4R-OH,5-OH)][X4]G[Nva(3-Et)]G); thioether 1-5), the half-inhibitory concentration (IC50) stood at 1200 ± 330 nM in the data set on CHO cells and 80 ± 10 nM in the data set with HEK293 cells.

For ε-amanitin, the LD50 in the data set on white mice is 0.3 to 0.6 mg/kg.

Consider `CC[C@H](C)[C@@H]1NC(=O)CNC(=O)[C@@H]2Cc3c([nH]c4ccccc34)[S+]([O-])C[C@H](NC(=O)CNC1=O)C(=O)N[C@@H](CC(=O)O)C(=O)N1C[C@H](O)C[C@H]1C(=O)N[C@@H]([C@@H](C)[C@@H](O)CO)C(=O)N2` (stereo partly shown) [amanin], for which the Ki at calf thymus RNAP II is 5 nM. For the same molecule, the LD50 with white mice was 0.3 mg/kg.

Consider β-amanitin, for which, on calf thymus RNAP II (read-out: Ki), the inhibition constant Ki is 2.5 nM. Moreover, in the data set with white mice, the LD50 was 0.5 mg/kg.

Take `CC[C@H](C)[C@@H]1NC(=O)CNC(=O)[C@@H]2Cc3c([nH]c4cc(O)ccc34)[S+]([O-])C[C@H](NC(=O)CNC1=O)C(=O)N[C@@H](CC(=O)O)C(=O)N1CCC[C@H]1C(=O)N[C@@H]([C@@H](C)CC)C(=O)N2` (stereo partly shown) [proamanullin]: in the data set on white mice, the LD50 was above 20 mg/kg.

Consider `CCC(CC)[C@@H]1NC(=O)CNC(=O)[C@H]2Cc3c([nH]c4ccccc34)S[C@@H](C)[C@H](NC(=O)CNC1=O)C(=O)N[C@@H](CC(N)=O)C(=O)N1C[C@H](O)C[C@H]1C(=O)N[C@@H]([C@@H](C)[C@@H](O)CO)C(=O)N2` [Compound I(xii), Diethylala^6, (2R,3S)-β-Methyl-Cys^8-Dideoxyamanitin] (cyclo(G[Nva(3-Et)]G[X1]N[Hyp][Ile(4R-OH,5-OH)][X2]); thioether 4-8), for which the concentration for half-maximal inhibition (IC50) in the data set with HeLa cells came to 2400 ± 300 nM; with CHO cells, 290 ± 70 nM; in the data set with HepG2 cells, 5700 ± 1100 nM; with HEK293 cells, 110 ± 30 nM. The “cytotoxicity, in words” value in the data set on HeLa cells and in the data set on HEK293 cells was “increased cytotoxicity” in each case. The results for the “toxicity relative to α-amanitin (times / -fold as toxic)” value with CHO cells and in the data set on HEK293 cells were 2 and 5, respectively.

Consider Herceptin, for which the IC50 in the data set on SK-BR-3 cells is above 1000 nM.
